Experimental data reported in patent CN113730373A, “一种递送姜黄素的zein-AOS复合纳米颗粒及其制备方法” (Zhejiang Ocean University ZJOU, priority 2021, dated 2021).

Legend:
[1] = DSC of thermal behaviour of nanoparticles; type: physicochemical
[2] = Curcumin release in simulated gastric fluid (SGF); type: physicochemical; settings: pH 2.0, pepsin, 37℃, 100 rpm, sampling to 90 min

characteristic decomposition peak of curcumin [1]: 179.2 °C
curcumin release rate [2]: 60.5%
Compound: COc1cc(/C=C/C(=O)CC(=O)/C=C/c2ccc(O)c(OC)c2)ccc1O [Cur, 姜黄素]
